# Test results taken from patent publication US8889876B2, “Histone deacetylase inhibitors and uses thereof” (Jiangsu Hengyi Pharmaceutical Co., Ltd., priority 2008, dated 2014).
# Columns and labels:
# [1] = system: K562: human chronic myeloid leukemia cell strain; assay: MTT cytotoxicity to tumor cell strains, K562; assay type: cell-based; settings: for IC50: Homo sapiens, read-out: Cell activity (IC50, μg/ml) K562
# Protocol: (§1) The cytotoxicity of samples to tumor cell strains is determined through MTT.
# [2] = system: PANC-1 human pancreatic cancer cells; assay: CCK-8 proliferation inhibition, PANC-1; assay type: cell-based; settings: for inhibition at 10 µM / inhibition at 100 µM: Homo sapiens; for inhibition at 10 µM: PANC-1, 10 μM; for inhibition at 100 µM: PANC-1, 100 μM
# Method in brief: (§2)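 Single-point screen at 100 μM and 10 μM test compound, with growth inhibition determined via the CCK-8 method.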
# [3] = system: A549 human lung cancer cells; assay: CCK-8 proliferation inhibition, A549; assay type: cell-based; settings: CCK-8 method; for inhibition at 10 µM / inhibition at 100 µM: Homo sapiens, A549
# Method in brief: as §2
# [4] = system: Hut 78 (T-cell Leukemia cell); assay: MTT cytotoxicity to tumor cell strains, Hut 78; assay type: cell-based; settings: Hut 78, MTT; for IC50: Homo sapiens, HuT78, read-out: Cell activity (IC50, μg/ml) Hut 78
# Protocol: as §1
# [5] = system: MDA-MB-435s human breast cancer cells; assay: CCK-8 proliferation inhibition, MDA-MB-435s; assay type: cell-based; settings: CCK-8 method; for inhibition at 10 µM / inhibition at 100 µM: Homo sapiens, MDA-MB-435S
# Method in brief: as §2
# [6] = system: Jurkat E6-1 human T-cell lymphoma; assay: CCK-8 proliferation inhibition, Jurkat E6-1; assay type: cell-based; settings: for inhibition at 10 µM / inhibition at 100 µM: Homo sapiens; for inhibition at 10 µM: Jurkat E6.1, 10 μM; for inhibition at 100 µM: Jurkat E6.1, 100 μM
# Method in brief: as §2
# [7] = system: A549 (human lung adenocarcinoma cells); assay: MTT cytotoxicity to tumor cell strains, A549; assay type: cell-based; settings: for IC50: Homo sapiens, read-out: Cell activity (IC50, μg/ml) A549
# Protocol: as §1
# [8] = system: PC-3 human prostate cancer; assay: CCK-8 proliferation inhibition, PC-3; assay type: cell-based; settings: CCK-8 method; for inhibition at 10 µM / inhibition at 100 µM: Homo sapiens
# Method in brief: as §2
# [9] = system: K562 human chronic myeloid leukemia cells; assay: CCK-8 proliferation inhibition, K562; assay type: cell-based; settings: for inhibition at 10 µM / inhibition at 100 µM: Homo sapiens; for inhibition at 10 µM: K562, 10 μM; for inhibition at 100 µM: K562, 100 μM
# Method in brief: as §2
# histone deacetylase [10] = assay: in vitro inhibition of histone deacetylase by HDAC inhibitor screening kit (Biovision K340-100); assay type: biochemical
# Protocol: An assay for determining the in vitro inhibition activity of the compound on histone deacetylase is conducted according to the specification of HDAC inhibitor screeing kid (Biovision Company/Catalog #K340-100). […]
# [11] = system: Colo320 human rectal cancer cells; assay: CCK-8 proliferation inhibition, Colo320; assay type: cell-based; settings: CCK-8 method; for inhibition at 10 µM / inhibition at 100 µM: Homo sapiens, COLO 320
# Method in brief: as §2
# histone deacetylase [12] = assay: in vitro inhibition activity on histone deacetylase (rat liver homogenate, MAL fluorescent substrate); assay type: biochemical, rats; settings: n = 4, 37° C., 16 hours
# Protocol: A 96-well plate (black) for determining […] is made by Costar Company of U.S. The histone deacetylase is obtained by homogenization of liver of rats. The histone deacetylase reacts with small molecular fluorescent substrate MAL such that the substrate MAL is deacetylated to become ML.
# The compound to be detected is dissolved with 200 μL of DMSO. The stock solution of the compound to be detected is diluted with PBS to a concentration of the working solution. The histone deacetylase, the MAL fluorescent substrate and the compound to be detected are mixed in a water bath at 37° C. and reacted 16 hours. The final concentration of the compound to be detected is: MS275 and its similar compound: 10, 100 μmol/.
# The reaction solution is extracted with ethyl acetate. The extract is pumped in vacuum and thereto added 110 μL of methanol (40%). Taking 50 μL/well to a 96-well plate and making a fluorescent detection at 325/390 nm.
# The negative control wherein histone deacetylase is not added to the reaction is 100% inhibition. The control that only contains histone deacetylase without any inhibitor is the background (0% inhibition). The inhibition rate of the sample to be detected=(the detected fluorescent value−the background)/(the fluorescent value of the negative control−background)×100%
# The inhibition rate and the standard deviation in the results are the average inhibition percentage and the standard deviation of each parallel well in each dosage group.
# [13] = system: Hep3B2.1-7 human liver cancer cells; assay: CCK-8 proliferation inhibition, Hep3B2.1-7; assay type: cell-based; settings: CCK-8 method; for inhibition at 10 µM / inhibition at 100 µM: Homo sapiens, Hep3B
# Method in brief: as §2
# [14] = system: Hut78 T-cell Leukemia cell; assay: CCK-8 proliferation inhibition, Hut78; assay type: cell-based; settings: for inhibition at 10 µM / inhibition at 100 µM: Homo sapiens, read-out: Hut-78 (inhibition %); for inhibition at 10 µM: HuT78, 10 μM; for inhibition at 100 µM: HuT78, 100 μM
# Method in brief: as §2
molecule,measurement,setting,value
"Nc1ccccc1NC(=O)c1ccc(CNC(=O)OCc2cccnc2)cc1 [MS-275, reference compound]","Cell activity (IC50, μg/ml) K562",[1],3.20 µg/mL
same,PANC-1 (inhibition %),[2]; 10 μM,12.4%
same,PANC-1 (inhibition %),[2]; 100 μM,31.6%
same,A549 (inhibition %),[3]; compound concentration 10 μM,58.9%
same,A549 (inhibition %),[3]; compound concentration 100 μM,92.3%
same,"Cell activity (IC50, μg/ml) Hut 78",[4],0.15 µg/mL
same,435s(inhibition %),[5]; compound concentration 10 μM,2.7%
same,435s(inhibition %),[5]; compound concentration 100 μM,59.3%
same,Jurkat E6-1 (inhibition %),[6]; 10 μM,89.5%
same,Jurkat E6-1 (inhibition %),[6]; 100 μM,96.1%
same,"Cell activity (IC50, μg/ml) A549",[7],24.42 µg/mL
same,PC-3 (inhibition %),[8]; compound concentration 10 μM,12.5%
same,PC-3 (inhibition %),[8]; compound concentration 100 μM,71.5%
same,K562 (inhibition %),[9]; 10 μM,66.2%
same,K562 (inhibition %),[9]; 100 μM,74.6%
same,Inhibition rate(%),histone deacetylase [10]; 3.91 μM,32.5%
same,Inhibition rate(%),histone deacetylase [10]; 62.5 μM,60.5%
same,Inhibition rate(%),histone deacetylase [10]; 2 mM,82.2%
same,Colo320 (inhibition %),[11]; compound concentration 10 μM,18.0%
same,Colo320 (inhibition %),[11]; compound concentration 100 μM,61.6%
same,inhibition rate % average number,histone deacetylase [12]; dosage 10 μmol/L,45.588%
same,inhibition rate % average number,histone deacetylase [12]; dosage 100 μmol/L,66.300%
same,Hep3B (inhibition %),[13]; compound concentration 10 μM,10.8%
same,Hep3B (inhibition %),[13]; compound concentration 100 μM,52.1%
same,Hut-78 (inhibition %),[14]; 10 μM,61.8%
same,Hut-78 (inhibition %),[14]; 100 μM,85.3%
"Nc1ncccc1NC(=O)c1ccc(CNC(=O)OCc2cccnc2)cc1 [V-4, N-(2-amino-3-pyridyl)-4-[(3-pyridylmethoxyacyl)aminomethyl]benzamide]",IC50,[1],> 100 µg/mL
same,inhibition at 10 µM,[2],40.2%
same,inhibition at 100 µM,[2],65.4%
same,inhibition at 10 µM,[3]; compound concentration 10 μM,50.6%
same,inhibition at 100 µM,[3]; compound concentration 100 μM,89.7%
same,IC50,[4],4.21 µg/mL
same,inhibition at 10 µM,[5]; compound concentration 10 μM,26.7%
same,inhibition at 100 µM,[5]; compound concentration 100 μM,87.5%
same,inhibition at 10 µM,[6],48.5%
same,inhibition at 100 µM,[6],79.3%
same,IC50,[7],> 100 µg/mL
same,inhibition at 10 µM,[8]; compound concentration 10 μM,79.5%
same,inhibition at 100 µM,[8]; compound concentration 100 μM,91.5%
same,inhibition at 10 µM,[9],22.4%
same,inhibition at 100 µM,[9],30.8%
same,Inhibition rate(%),histone deacetylase [10]; 3.91 μM,9.4%
same,Inhibition rate(%),histone deacetylase [10]; 62.5 μM,19.8%
same,Inhibition rate(%),histone deacetylase [10]; 2 mM,65.2%
same,inhibition at 10 µM,[11]; compound concentration 10 μM,33.2%
same,inhibition at 100 µM,[11]; compound concentration 100 μM,78.3%
same,inhibition rate % average number,histone deacetylase [12]; dosage 10 μmol/L,1.644%
same,inhibition rate % average number,histone deacetylase [12]; dosage 100 μmol/L,12.033%
same,inhibition at 10 µM,[13]; compound concentration 10 μM,2.6%
same,inhibition at 100 µM,[13]; compound concentration 100 μM,37.4%
same,inhibition at 10 µM,[14],36%
same,inhibition at 100 µM,[14],67.2%
Nc1cnccc1NC(=O)c1ccc(CNC(=O)OCc2cccnc2)cc1 [V-5],IC50,[1],> 100 µg/mL
same,inhibition at 10 µM,[2],20.7%
same,inhibition at 100 µM,[2],74.1%
same,inhibition at 10 µM,[3]; compound concentration 10 μM,65.6%
same,inhibition at 100 µM,[3]; compound concentration 100 μM,84.8%
same,IC50,[4],0.4 µg/mL
same,inhibition at 10 µM,[5]; compound concentration 10 μM,35.8%
same,inhibition at 100 µM,[5]; compound concentration 100 μM,86.9%
same,inhibition at 10 µM,[6],58.5%
same,inhibition at 100 µM,[6],85.9%
same,IC50,[7],> 100 µg/mL
same,inhibition at 10 µM,[8]; compound concentration 10 μM,90.3%
same,inhibition at 100 µM,[8]; compound concentration 100 μM,92.4%
same,inhibition at 10 µM,[9],21%
same,inhibition at 100 µM,[9],64.4%
same,Inhibition rate(%),histone deacetylase [10]; 3.91 μM,7.6%
same,Inhibition rate(%),histone deacetylase [10]; 62.5 μM,28.0%
same,Inhibition rate(%),histone deacetylase [10]; 2 mM,77.1%
same,inhibition at 10 µM,[11]; compound concentration 10 μM,39.6%
same,inhibition at 100 µM,[11]; compound concentration 100 μM,92.9%
same,inhibition rate % average number,histone deacetylase [12]; dosage 10 μmol/L,9.422%
same,inhibition rate % average number,histone deacetylase [12]; dosage 100 μmol/L,37.240%
same,inhibition at 10 µM,[13]; compound concentration 10 μM,31.2%
same,inhibition at 100 µM,[13]; compound concentration 100 μM,53.6%
same,inhibition at 10 µM,[14],43.4%
same,inhibition at 100 µM,[14],72.8%
N-(2-amino-4-pyridyl)-4-[(2-naphthylmethoxyacyl)aminomethyl]benzamide [V-24],"Cell activity (IC50, μg/ml) K562",[1],6.23 µg/mL
same,PANC-1 (inhibition %),[2]; 10 μM,8.0%
same,PANC-1 (inhibition %),[2]; 100 μM,7.8%
same,A549 (inhibition %),[3]; compound concentration 10 μM,48.7%
same,A549 (inhibition %),[3]; compound concentration 100 μM,65.7%
same,"Cell activity (IC50, μg/ml) Hut 78",[4],0.30 µg/mL
same,435s(inhibition %),[5]; compound concentration 10 μM,49.8%
same,435s(inhibition %),[5]; compound concentration 100 μM,50.4%
same,Jurkat E6-1 (inhibition %),[6]; 10 μM,37.2%
same,Jurkat E6-1 (inhibition %),[6]; 100 μM,22.1%
same,"Cell activity (IC50, μg/ml) A549",[7],7.11 µg/mL
same,PC-3 (inhibition %),[8]; compound concentration 10 μM,5.1%
same,PC-3 (inhibition %),[8]; compound concentration 100 μM,3.4%
same,K562 (inhibition %),[9]; 10 μM,42.8%
same,K562 (inhibition %),[9]; 100 μM,29.7%
same,Colo320 (inhibition %),[11]; compound concentration 10 μM,−2.3%
same,Colo320 (inhibition %),[11]; compound concentration 100 μM,−17.1%
same,inhibition rate % average number,histone deacetylase [12]; dosage 10 μmol/L,46.547%
same,inhibition rate % average number,histone deacetylase [12]; dosage 100 μmol/L,70.300%
same,Hep3B (inhibition %),[13]; compound concentration 10 μM,24.8%
same,Hep3B (inhibition %),[13]; compound concentration 100 μM,13.5%
same,Hut-78 (inhibition %),[14]; 10 μM,26.2%
same,Hut-78 (inhibition %),[14]; 100 μM,20.7%
